{
  "source": "patent US9388224B2",
  "about": "“Compositions for preserving insulin-producing cells and insulin production and treating diabetes” (VANDERBILT UNIVERSITY, priority 2011, dated 2016)",
  "key": {"[1]": {"assay": "In vivo intracellular peptide delivery to the pancreas (confocal microscopy)", "set-up": "species or system NOD mice", "details": "single i.p. injection (0.7 mg FITC-labeled peptide/mouse or FITC of equivalent fluorescence); 2 h after injection", "source_text": "Cell-penetrating peptide (cSN50, MW=3149; cSN50.1, MW=2986), and non-cell-penetrating peptide (cN50, MW=1651), were synthesized, purified, filter-sterilized, and analyzed as described elsewhere (Torgerson et al. (1998) J Immunol 161: 6084-6092; Liu et al. (2000) J Biol Chem 275: 16774-16778). To monitor the intracellular delivery of peptides to pancreas, cSN50 peptide was coupled with fluorescein isothiocyanate (FITC, Pierce) according to the manufacturer's protocol.\nFor in vivo detection of fluorescein-labeled peptides in the pancreas, NOD mice were sacrificed at 2 h after intraperitoneal (i.p.) injection of 0.7 mg of FITC-labeled cSN50 peptide/mouse. The pancreata were washed with saline and prepared for cryosections (10 μm thickness). Control solution of FITC alone with equivalent fluorescence units was injected separately to track distribution to the pancreas.\nIntracellular delivery of a Nuclear Transport Modifier to the pancreas reduces islet inflammation (insulitis). […] It was first determined whether cSN50 would be delivered to the pancreas, the primary site of autoimmune attack against beta cells in pancreatic islets. […] Using confocal microscopy, the pancreatic delivery of FITC-labeled cSN50 peptide following a single intraperitoneal (i.p.) injection was assessed. […]"}, "NOD mice": {"test_system": "NOD mice", "assay": "Toxicity observation and clinical chemistry in treated NOD mice", "description": "ALT and BUN levels were determined on a VITROS 250 Chemistry analyzer using multi-layered vitros slides and colorimetric or enzyme rate tests as appropriate.\nTen week old female NOD mice received one dose of Cy (0.2 mg/g); after 45 h, intracellular peptide delivery was initiated with cSN50 (35 μg/g) or with control cN50 and continued every 2 h for 48 h. Serum was obtained daily from the saphenous vein and measurements of ALT (FIG. 8A) and BUN (FIG. 8B) were performed in 7 mice in each group."}, "[2]": {"assay": "Anti-cSN50 peptide antibody induction (ELISA)", "format": "in vivo, NOD mice", "details": "limit of detection 10 ng/mL"}, "[3]": {"assay": "Continued peptide delivery in other disease models, toxicity", "format": "in vivo", "details": "up to 8 weeks, health, survival, weight gain, liver enzymes, blood cell counts normal", "source_text": "Reduction or complete elimination of islet-destructive autoreactive T and B cells may be useful in treating T1D and potentially other autoimmune diseases. Other autoimmune disorders include Systemic Lupus Erythematosus, Multiple Sclerosis, Rheumatoid Arthritis, Crohn Diseases, and Ulcerative Collitis. Under conditions of metabolic, inflammatory, and oxidant stress, beta cell mass may be further controlled by important interactions between bone marrow-derived cells and islet beta cells. Transcriptional modulation of these interactions via targeting of the nuclear import machinery represents an important new opportunity for therapeutic development. Even though cSN50 can modulate nuclear transport of several stress-responsive transcription factors that utilize importin alpha 1/karyopherin alpha 5 (as well as other importins/karyopherins, e.g., importin alpha 5/karyopherin) for nuclear trafficking, intracellular delivery of the Nuclear Transport Modifier is rapid and restricted to the relatively short intracellular persistence of the injected cargo (Hawiger J., (1999) Current Opinion in Chem. Biology 3:89-94). Despite high intensity dosing of cSN50 in the protocols disclosed herein, short-term or long-term adverse effects were not observed. […] In preliminary studies, spontaneous disease was reversed in 40% of the NOD mice during a continuing NTM treatment for 3 weeks."}, "[4]": {"test_system": "autoimmune diabetes in NOD mice", "assay": "Autoimmune diabetes progression in cyclophosphamide-synchronized NOD mice (blood glucose)", "format": "in vivo", "details": "general statement, experiments described herein", "source_text": "NOD/LtJ, NOD-BDC2.5 and C57BL/6 mice were purchased from the Jackson Laboratories (Bar Harbor, Me.) at 6-8 weeks of age. All mice were housed and maintained according to the guidelines for use and care of laboratory animals as set forth by Vanderbilt University and regulated via the Vanderbilt IACUC. All NOD mice were monitored twice weekly for the development of diabetes by blood glucose measurement with FreeStyle® FastTake test strips (Abbott Laboratories, Abbott Park, Ill.). Two consecutive glucose measurements >220 mg/dl constituted a diagnosis of diabetes. A colony of NOD mice kept by a collaborating laboratory in the same animal suite has a spontaneous diabetes incidence of 80-90% in females by 30 weeks of age indicating an animal environment that is conducive for diabetes development.\nAt 10-11 weeks of age, female NOD mice received an intraperitoneal bolus injection of 200 mg/kg cyclophosphamide (Sigma). Cyclophosphamide was prepared by reconstitution of powder in sterile saline for injection.\n45 h after diabetes synchronization with cyclophosphamide, treatment with cSN50 or control was initiated. Mice receiving cSN50 were given 35 μg/g of cSN50 i.p. every two hours for the next 48 h. Control mice received either saline or non-cell penetrating cN50 peptide at molar equivalent (20 μg/g). cN50 peptide, contains the cyclized NLS but lacks the membrane translocating motif. […]"}},
  "note": "Bridge positions count the residues as written; N and C are the ends. Ends that are not written are not given here. Peptide text beside a SMILES is read from it.",
  "data": [
    {"compound": "fluorescein isothiocyanate [FITC]", "values": [
      {"measurement": "delivery to / distribution in the pancreas", "setting": "[1]", "result": "did not penetrate the organ"}
    ]},
    {"compound": "CSCC[C@@H]1NC(=O)[C@H](CC(C)C)NC(=O)[C@H](CCCCN)NC(=O)[C@H](CCC(N)=O)NC(=O)[C@H](CCCNC(=N)N)NC(=O)[C@H](CCCCN)NC(=O)[C@H](CCCNC(=N)N)NC(=O)[C@H](CCC(N)=O)NC(=O)[C@H](C(C)C)NC(=O)[C@H](Cc2ccc(O)cc2)NC(=O)[C@@H](NC(=O)[C@@H]2CCCN2C(=O)[C@H](C)NC(=O)[C@H](CC(C)C)NC(=O)[C@H](CC(C)C)NC(=O)[C@H](C)NC(=O)[C@H](CC(C)C)NC(=O)[C@H](CC(C)C)NC(=O)[C@@H](NC(=O)[C@H](C)NC(=O)[C@@H]2CCCN2C(=O)[C@H](CC(C)C)NC(=O)[C@H](CC(C)C)NC(=O)[C@H](C)NC(=O)[C@@H](NC(=O)[C@H](C)NC(=O)[C@H](C)N)C(C)C)C(C)C)CSSC[C@@H](C(=O)O)NC(=O)[C@@H]2CCCN2C1=O", "note": "[cSN50] (H-AAVALLPAVLLALLAPCYVQRKRQKLMPC-OH; disulfide 17-29; N-terminus and C-terminus assumed)", "values": [
      {"measurement": "overt signs of toxicity", "setting": "NOD mice; 365 days of observation after 48 h treatment", "result": "did not display overt signs of toxicity"},
      {"measurement": "acquired infection", "setting": "NOD mice; after intensive treatment", "result": "no signs of acquired infection"},
      {"measurement": "weight gain", "setting": "NOD mice; after intensive treatment", "result": "normal weight gain"},
      {"measurement": "BUN level", "setting": "NOD mice; serum daily, 7 mice per group, vs cN50 control", "result": "not significantly different from control"},
      {"measurement": "ALT level", "setting": "NOD mice; serum daily, 7 mice per group, vs control", "result": "not significantly different from control"},
      {"measurement": "alkaline phosphatase, creatinine, creatine kinase, and total bilirubin", "setting": "NOD mice; serum, 7 mice per group", "result": "below the limit of detection"},
      {"measurement": "anti-cSN50 peptide antibody induction", "setting": "[2]", "result": "not detected"},
      {"measurement": "toxicity on continued delivery", "setting": "[3]", "result": "without evidence of toxicity"}
    ]},
    {"compound": "AAVALLPAVLLALLAPCVQRKRQKLMPC (disulfide 17-28 (inferred)) [cSN50.1, cSN50 with the tyrosine at position 18 removed to increase solubility]", "values": [
      {"measurement": "islet protection from immune destruction", "setting": "[4]", "result": "effectively protected islets from immune destruction"}
    ]}
  ]
}
